Assay results as given in patent US8993596B2, “4-(azacycloalkyl)benzene-1,3-diol compounds as tyrosinase inhibitors, process for the preparation thereof and use thereof in human medicine and in cosmetics” (Galderma Research & Development, priority 2008, dated 2015).

Experiments:
[1] = tested on: MNT1 human melanoma cells; experiment: Melanogenesis inhibition assay (14C-thiouracil incorporation); assay type: cell-based; conditions: MNT-1, 24 h at 37° C., 14C incorporation standardized through 3H incorporation
Method: (§1) The inhibition of melanogenesis is measured in MNT1 human melanoma cells according to a protocol adapted from Reigner et al., Cell Mol Biol (1999) 45: 969-980. The assay is based on the concomitant incorporation of 2 radiolabelled tracers: ^14C-thiouracil is incorporated into the neosynthesized melanin and reflects melanogenesis, whereas ^3H-leucine is incorporated into the proteins and reflects cell viability and, consequently, the toxicity of the compounds tested.
(§2) The MNT1 cells are seeded into 96-well plates in the presence of the test compounds and of the radioisotopes. After incubation for 24 h at 37° C., the cells are washed and the amount of the 2 radioisotopes is measured. The test compounds are evaluated in terms of dose-response so as to calculate an IC50 for inhibition of melanogenesis on the basis of the ^14C incorporation which is standardized through the ^3H incorporation. An IC50 for cell toxicity is also calculated on the basis of the ^3H incorporation.

[2] = tested on: MNT1 human melanoma cells; experiment: Cell toxicity (3H-leucine incorporation) in the melanogenesis assay; assay type: cell-based; conditions: MNT-1, 24 h at 37° C.
Method: as §1, §2

tyrosinase = tyrosinase (Mus musculus (Mouse), UniProt P11344); experiment: Tyrosinase activity inhibition assay (B16F1 cell lysate); assay type: biochemical, murine; conditions: lysate of B16F1 cells, L-tyrosine substrate, MBTH, reading at 520 nm after 6 hours at 37° C.; read-out: Tyrosine hydroxylase/ Dopa oxidase IC50
tyrosinase, sequence (P11344 19-533): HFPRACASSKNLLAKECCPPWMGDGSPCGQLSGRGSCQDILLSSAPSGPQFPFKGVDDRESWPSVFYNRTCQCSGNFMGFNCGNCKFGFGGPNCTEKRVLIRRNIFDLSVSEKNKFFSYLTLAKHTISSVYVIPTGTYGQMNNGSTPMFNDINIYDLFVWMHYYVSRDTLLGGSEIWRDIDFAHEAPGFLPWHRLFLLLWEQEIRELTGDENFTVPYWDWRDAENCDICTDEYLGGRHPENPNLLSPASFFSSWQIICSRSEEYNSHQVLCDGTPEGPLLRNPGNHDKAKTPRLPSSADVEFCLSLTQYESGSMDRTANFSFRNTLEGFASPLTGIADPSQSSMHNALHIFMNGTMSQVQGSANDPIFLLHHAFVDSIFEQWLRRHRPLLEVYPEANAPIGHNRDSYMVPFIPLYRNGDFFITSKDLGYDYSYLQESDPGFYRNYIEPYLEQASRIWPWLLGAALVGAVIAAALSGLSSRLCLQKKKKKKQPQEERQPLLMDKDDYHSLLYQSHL
Method: The activity of the inhibitors is measured using a lysate of B16F1 cells (murine melanoma line). In the presence of the L-tyrosine substrate, the tyrosinase present in these cells catalyses the hydroxylation of L-tyrosine to give L-DOPA and then the oxidation of the L-DOPA to give dopaquinone. In the presence of MBTH (3-methyl-2-benzothiazolinone hydrazone), the dopaquinone is trapped so as to form a pink complex which absorbs at 520 nm.
The B16F1 cells are cultured in DMEM medium+10% foetal calf serum+10^−9 M α-MSH for 4 days at 37° C. under 7% CO2. They are treated with trypsin, washed in PBS, counted and pelleted. The pellet is taken up at 10^7 cells/ml in lysis buffer (10 mM sodium phosphate, pH 6.8-1% Igepal) and the suspension is treated with ultrasound for 10 seconds. After centrifugation for 30 minutes at 4000 rpm, the supernatant obtained constitutes the cell lysate used as tyrosinase source in the enzymatic assay.
The assays are carried out in duplicate in 384-well plates in a total volume of 50 μl. […]
The plate is incubated at 37° C. and a spectrophotometric reading is carried out at 520 nm after 6 hours of incubation. In order to avoid any possible absorption of the products, the system uses corrected absorbance (absorbance at time 6 h—absorbance at time zero). […]

Row | SMILES | IC50 [1] [nM] | IC50 [2] [µM] | IC50 (tyrosinase) [nM]
1 | CCCCc1ccc(O)cc1O [4-Butylresorcinol (Rucinol), 4-Butylresorcinol, reference compound] | 15000 | 55 | 
2 | C[C@H](NC(=O)N1CCC(c2ccc(O)cc2O)CC1)c1ccccc1 [Compound 24, 4-(2,4-dihydroxyphenyl)piperidine-1-carboxylic acid ((S)-1-phenylethyl)amide] | 300 | > 999 | 150
3 | O=C([C@@H](O)c1ccccc1)N1CCC(c2ccc(O)cc2O)CC1 [Compound 48, (S)-1-[4-(2,4-dihydroxyphenyl)piperidin-1-yl]-2-hydroxy-2-phenylethanone] | 700 | > 999 | 200
